In publication PMC9218685, “Legume Plant Peptides as Sources of Novel Antimicrobial Molecules Against Human Pathogens” (Frontiers in Molecular Biosciences, 2022):
In brackets after ≈: the same amount, converted by molar mass. Ends that are not written are not given here. Peptide text beside a SMILES is read from it.

Assays:
Type in all cases: cell-based
[1] = test system: Escherichia coli (ATCC 8739); conditions: for MBC Escherichia coli: ATCC 8739, 3 h
From the text: (§1) The following pathogenic bacterial strains were used: The Gram-positive Enterococcus faecalis (ATCC 29212), Staphylococcus aureus (HNCMO112011), Listeria monocytogenes (ATCC 19111) and the Gram-negative Pseudomonas aeruginosa (ATCC 27853), Escherichia coli (ATCC 8739), Salmonella enterica (ATCC 13076), Klebsiella pneumoniae (NCTC 13440), Acinetobacter baumannii (ATCC 17978) obtained from the ATCC (United States) and NCTC (National Collection of Type Cultures–England). For the antifungal experiment the Candida albicans W01 strain ([Ördögh et al., 2014]) was used. Antimicrobial activities of peptides against ∼10^7 log phase bacteria were tested in Potassium-Phosphate Buffer (PPB, pH 7.4) as described by [Jenei et al. (2020)] while anti-Candida assays were done according to [Szerencsés et al. (2021)]. The two-fold dilution series of peptides ranged from 25 μM to 0.125 μM, while that of the antibiotics ampicillin (Merck) and miconazole (Duchefa Biochemie) from […] to 0.1 μM. The lowest concentration of the antimicrobial agents, which completely eliminated viable bacteria or C. albicans were considered as the minimal bactericidal concentration (MBC) and minimal fungicidal concentration (MFC).
(§2) The minimal bactericidal concentrations (MBCs) were determined after 3 h of treatment of ∼10^7 log phase bacteria with 2-fold serial dilution of peptides from 25 µM to 0.8 µM. Only 25 of the 50 cationic M. truncatula peptides had activity at ≤25 µM (Supplementary Table S1). […] Three peptides were only active against two bacterial strains; NCR649 against L. monocytogenes and A. baumannii, NCR281 against L. monocytogenes and P. aeruginosa and NCR350 against A. baumannii and P. aeruginosa. […] None of the anionic NCR peptides affected the survival of the tested bacterial strains.

[2] = test system: Pseudomonas aeruginosa (ATCC 27853)
From the text: as §1, §2

[3] = test system: E. coli, S. enteritidis, P. aeruginosa, L. monocytogenes, S. aureus, E. faecalis, K. pneumoniae and A. baumannii; experiment: Antimicrobial activity assay, spectrum over the eight tested pathogenic bacteria; conditions: 3 h treatment of ~10^7 log phase bacteria, peptides 25 to 0.8 µM; active = MBC ≤25 µM
From the text: as §1
We investigated the antimicrobial activity of 78 NCR peptides from M. truncatula and 12 NCRs from other IRLC legumes as well as their shorter derivatives against E. coli, S. enteritidis, P. aeruginosa, L. monocytogenes, S. aureus, E. faecalis, K. pneumoniae and A. baumannii (Supplementary Table S1). In the selection of the M. truncatula peptides, we considered their symbiotic expression levels but also their physicochemical properties. The antimicrobial activity of NCRs has so far been attributed to cationic peptides, with the exception of one anionic peptide. To investigate whether other anionic NCRs are antimicrobial, in addition to the cationic peptides, neutral and anionic NCRs were also included covering a broad range of peptides with different net charges (NC: from 7.8 to −10.2) and isoelectric points (pI: from 10.69 to 2.95). 50 peptides had positive net charge and pI > 7.0, while 28 peptides had negative net charge and pI < 7.0 (Supplementary Table S1A). Of the other legumes, only cationic NCR peptides were studied (Supplementary Table S1B).
as §2

[4] = test system: Listeria monocytogenes (ATCC 19111); conditions: ATCC 19111, 3 h
From the text: as §1, §2

`CC(C)C[C@H](NC(=O)[C@H](CCCCN)NC(=O)[C@H](CC(C)C)NC(=O)[C@H](CS)NC(=O)[C@H](CCCCN)NC(=O)CNC(=O)[C@@H](N)Cc1ccccc1)C(=O)N[C@@H](CCCCN)C(N)=O` [GoNCR308 (16-23)] (H-FGKCLKLK-NH2) was tested, and the “MBC Escherichia coli” value [1] was 25 µM (≈ 23.4 µg/mL) and the “MBC Pseudomonas aeruginosa” value ([2]; ATCC 27853, 3 h) was 25 µM (≈ 23.4 µg/mL).
`CC(C)[C@H](NC(=O)[C@H](CS)NC(=O)[C@@H](N)CCCCN)C(=O)N[C@@H](Cc1ccc(O)cc1)C(=O)N[C@H](C(=O)N1CCC[C@H]1C(=O)N[C@@H](CCCCN)C(=O)N[C@@H](CCCNC(=N)N)C(N)=O)[C@@H](C)O` [GoNCR308 (23-30)] (H-KCVYTPKR-NH2) was tested, and the “MBC Escherichia coli” value [1] was 50 µM (≈ 49.7 µg/mL).
`CC[C@H](C)[C@H](NC(=O)[C@H](CCCCN)NC(=O)[C@H](CC(=O)O)NC(=O)[C@@H]1CCCN1C(=O)[C@@H](N)Cc1ccccc1)C(=O)N[C@@H](Cc1ccccc1)C(=O)N[C@@H](Cc1ccccc1)C(=O)NCC(=O)N[C@@H](CC(=O)O)C(=O)N[C@@H](CS)C(=O)N[C@@H](CCC(N)=O)C(=O)N[C@H](C(=O)N[C@@H](CC(=O)O)C(=O)N[C@@H](CCCCN)C(=O)N[C@@H](CC(=O)O)C(=O)N[C@@H](CS)C(=O)N[C@@H](CCCCN)C(=O)N1CCC[C@H]1C(=O)N[C@@H](CCCCN)C(=O)N[C@@H](CCCNC(=N)N)C(=O)NCC(=O)N[C@H](C(=O)N[C@@H](CC(N)=O)C(=O)N[C@@H](Cc1ccccc1)C(=O)N[C@@H](CCCNC(=N)N)C(=O)N[C@@H](CS)C(=O)N[C@@H](CCCNC(=N)N)C(=O)N[C@@H](CCCCN)C(=O)NCC(=O)N[C@@H](CCCCN)C(=O)N[C@@H](CS)C(=O)N[C@@H](Cc1ccccc1)C(=O)N1CCC[C@H]1C(=O)N[C@H](C(=O)N[C@@H](CCCNC(=N)N)C(=O)O)C(C)C)C(C)C)[C@@H](C)O` [MsNCR463] (H-FPDKIFFGDCQTDKDCKPKRGVNFRCRKGKCFPVR-OH; N-terminus assumed) was tested, and the “Antibacterial spectrum over the eight tested bacterial strains” value [3] was “only effective against P. aeruginosa” and the “Effective concentration (MBC) against P. aeruginosa” value ([2]; 3 h, ~10^7 log phase bacteria) was 25 µM.
`CC[C@H](C)[C@H](NC(=O)[C@@H]1CCCN1C(=O)[C@@H]1CCCN1C(=O)[C@@H](NC(=O)[C@H](CS)NC(=O)[C@@H](NC(=O)CNC(=O)[C@H](CCCCN)NC(=O)[C@H](CCCNC(=N)N)NC(=O)[C@H](CS)NC(=O)[C@H](CCCNC(=N)N)NC(=O)[C@H](Cc1ccccc1)NC(=O)[C@H](CC(N)=O)NC(=O)[C@H](C)NC(=O)CNC(=O)[C@H](Cc1ccc(O)cc1)NC(=O)[C@H](CC(C)C)NC(=O)[C@H](CCCCN)NC(=O)[C@@H]1CCCN1C(=O)[C@H](CS)NC(=O)[C@H](CC(=O)O)NC(=O)[C@H](CCCCN)NC(=O)[C@H](CC(=O)O)NC(=O)[C@H](CCCNC(=N)N)NC(=O)[C@H](CCCCN)NC(=O)[C@H](CS)NC(=O)[C@H](CO)NC(=O)[C@H](CO)NC(=O)[C@@H](NC(=O)[C@H](Cc1ccccc1)NC(=O)[C@@H](NC(=O)CNC(=O)[C@H](CC(C)C)NC(=O)[C@@H](N)Cc1ccccc1)[C@@H](C)O)[C@@H](C)CC)[C@@H](C)O)C(C)C)C(=O)O` [NCR035] (H-FLGTFISSCKRDKDCPKLYGANFRCRKGTCVPPI-OH; N-terminus assumed) was tested, and the “Activity against E. coli” value ([1]; 3 h, ~10^7 log phase bacteria, peptides ≤25 µM) was “only effective” and the “MBC Escherichia coli” value [1] was 12.5 µM (≈ 47.8 µg/mL).
With `CSCC[C@H](NC(=O)[C@H](CCCNC(=N)N)NC(=O)[C@@H](NC(=O)[C@H](Cc1c[nH]c2ccccc12)NC(=O)[C@H](CCCNC(=N)N)NC(=O)[C@H](CS)NC(=O)[C@H](CCC(=O)O)NC(=O)CNC(=O)[C@H](CCCCN)NC(=O)[C@@H](NC(=O)[C@H](CS)NC(=O)[C@H](CCCCN)NC(=O)[C@H](Cc1ccccc1)NC(=O)[C@H](CCCNC(=N)N)NC(=O)[C@H](CCCCN)NC(=O)[C@@H](NC(=O)[C@H](CCCNC(=N)N)NC(=O)[C@@H](NC(=O)[C@H](CO)NC(=O)[C@@H]1CCCN1C(=O)[C@@H]1CCCN1C(=O)[C@H](CS)NC(=O)[C@H](CC(=O)O)NC(=O)[C@H](C)NC(=O)[C@H](CC(=O)O)NC(=O)[C@@H](NC(=O)[C@H](CCC(=O)O)NC(=O)[C@H](CS)NC(=O)[C@H](CC(N)=O)NC(=O)[C@@H](NC(=O)[C@@H](N)Cc1ccc(O)cc1)C(C)C)[C@@H](C)O)[C@@H](C)O)C(C)C)C(C)C)[C@@H](C)O)C(=O)N[C@@H](CO)C(=O)N[C@@H](Cc1ccc(O)cc1)C(=O)N[C@@H](C)C(=O)O` [NCR086] (H-YVNCETDADCPPSTRVKRFKCVKGECRWTRMSYA-OH; N-terminus assumed) the “MBC Listeria monocytogenes” value [4] was 25 µM (≈ 100 µg/mL).
With `CC[C@H](C)[C@H](NC(=O)[C@H](CCSC)NC(=O)[C@H](CCCNC(=N)N)NC(=O)[C@H](CCCNC(=N)N)NC(=O)CNC(=O)[C@@H]1CCCN1C(=O)[C@H](CC(C)C)NC(=O)[C@H](CS)NC(=O)[C@H](Cc1ccc(O)cc1)NC(=O)[C@H](CCCCN)NC(=O)[C@@H](NC(=O)[C@@H]1CCCN1C(=O)[C@H](CO)NC(=O)[C@H](CS)NC(=O)[C@H](CC(=O)O)NC(=O)[C@H](CO)NC(=O)[C@@H](NC(=O)[C@H](CCCCN)NC(=O)[C@@H](NC(=O)[C@H](CS)NC(=O)[C@H](CCC(=O)O)NC(=O)[C@H](CC(=O)O)NC(=O)[C@@H](N)CO)C(C)C)C(C)C)[C@@H](C)O)C(=O)N[C@@H](CS)C(=O)N[C@@H](CO)C(=O)N[C@@H](CCCCN)C(=O)NCC(=O)N[C@@H](CCCCN)C(=O)N[C@@H](CS)C(=O)N[C@@H](CCCCN)C(=O)N[C@@H](CS)C(=O)N[C@@H](CC(C)C)C(=O)N[C@@H](CCCNC(=N)N)C(=O)N[C@@H](CC(N)=O)C(=O)N[C@@H](CCSC)C(=O)N[C@@H](Cc1ccccc1)C(=O)N[C@H](C(=O)N1CCC[C@H]1C(=O)N[C@H](C(=O)N1CCC[C@H]1C(=O)O)[C@@H](C)CC)[C@@H](C)CC` [NCR135] (H-SDECVKVSDCSPTKYCLPGRRMICSKGKCKCLRNMFIPIP-OH; N-terminus assumed) the “Antibacterial spectrum over the eight tested bacterial strains” value [3] was “against three strains”.
With `CC[C@H](C)[C@H](NC(=O)[C@@H]1CCCN1C(=O)[C@H](CO)NC(=O)[C@@H](N)CO)C(=O)N[C@@H](CCCNC(=N)N)C(=O)N[C@H](C(=O)N[C@H](C(=O)N[C@@H](CC(=O)O)C(=O)N[C@H](C(=O)N[C@@H](CO)C(=O)N[C@@H](CCCNC(=N)N)C(=O)N1CCC[C@H]1C(=O)N[C@@H](CS)C(=O)N[C@H](C(=O)N[C@H](C(=O)N[C@@H](CC(=O)O)C(=O)N[C@@H](CCCCN)C(=O)N[C@@H](CC(=O)O)C(=O)N[C@@H](CS)C(=O)N[C@@H](CO)C(=O)N[C@@H](CCCCN)C(=O)N[C@H](C(=O)N[C@@H](CCC(=O)O)C(=O)N[C@@H](Cc1ccc(O)cc1)C(=O)NCC(=O)N[C@@H](Cc1ccc(O)cc1)C(=O)N[C@@H](CCCCN)C(=O)N[C@@H](CC(C)C)C(=O)N[C@@H](CCCNC(=N)N)C(=O)N[C@@H](CS)C(=O)N[C@@H](CCCNC(=N)N)C(=O)N[C@@H](CCCCN)C(=O)NCC(=O)N[C@@H](CCCNC(=N)N)C(=O)N[C@@H](CS)C(=O)N[C@H](C(=O)N[C@@H](Cc1c[nH]cn1)C(=O)N[C@H](C(=O)N1CCC[C@H]1C(=O)N[C@@H](CCCNC(=N)N)C(=O)O)[C@@H](C)CC)C(C)C)C(C)C)[C@@H](C)O)[C@@H](C)O)C(C)C)[C@@H](C)O)C(C)C` [NCR533] (H-SSPIRVTDVSRPCTTDKDCSKVEYGYKLRCRKGRCVHIPR-OH; N-terminus assumed) the “MBC Escherichia coli” value [1] was 25 µM (≈ 115 µg/mL).
For “AYYECSNDSACQATTKCVLPRVPRCIKYKCLCGNSNGSGNRWSTRPNRIQKGSTESNYF-OH (cysteines drawn unpaired) [NCR384]”, the “Antibacterial spectrum over the eight tested bacterial strains” value [3] was “able to kill all tested bacteria except E. faecalis and K. pneumoniae”.
In the case of “KCYQDSDCPKDMCSFLFKPKCIFTRYFPIYLGGICGCDRKTCP-OH (cysteines drawn unpaired) [NCR645]”, the “Antibacterial spectrum over the eight tested bacterial strains” value [3] is reported as “kill all bacteria except E. faecalis”.
With “MKNGCKHTGHCPRKMCGAKTTKCRNNKCQCV [NCR192]” the “Antibacterial spectrum over the eight tested bacterial strains” value [3] was “all active, with the exception of NCR192”.
